Results: ChEMBL document CHEMBL1201862, “PubChem BioAssay data set” (2004)
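Following 48 hours of exposure in 96-well plates, responses at five concentrations were used to interpolate endpoints linearly. At the GI50, growth is halved.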 Calls of active or inactive are those of the source. Rule as the data show it: active = GI50 up to about 1.1 µM and inactive = higher.

How the values were obtained:
Assay in all cases: NCI-60 cell line screen, 48 h
[1] = system: OVCAR-5
[2] = system: SK-OV-3
[3] = system: SR
[4] = system: M14
[5] = system: Malme-3M
[6] = system: SNB-19
[7] = system: KM12
[8] = system: 786-0
[9] = system: A498
[10] = system: Hs-578T
[11] = system: NCI-H522
[12] = system: HT-29
[13] = system: HCT-15
[14] = system: UACC-257
[15] = system: EKVX
[16] = system: MDA-MB-435
[17] = system: SK-MEL-5
[18] = system: CAKI-1
[19] = system: A549
[20] = system: TK-10

Compound	GI50 [1]	GI50 [2]	GI50 [3]	GI50 [4]	GI50 [5]	GI50 [6]	GI50 [7]	GI50 [8]	GI50 [9]	GI50 [10]	GI50 [11]	GI50 [12]	GI50 [13] [µM]	GI50 [14]	GI50 [15]	GI50 [16]	GI50 [17]	GI50 [18]	GI50 [19]	GI50 [20]
CC(=O)OC(=C(C#N)C#N)c1nccnc1C(=O)O	> 100 µM (inactive)	> 100 µM (inactive)	> 100 µM (inactive)	> 100 µM (inactive)	> 100 µM (inactive)	> 100 µM (inactive)	> 100 µM (inactive)	> 100 µM (inactive)	> 100 µM (inactive)	> 100 µM (inactive)	> 100 µM (inactive)	> 100 µM (inactive)	> 100	> 100 µM (inactive)	> 100 µM (inactive)	> 100 µM (inactive)	> 100 µM (inactive)	> 100 µM (inactive)	> 100 µM (inactive)	–
O=C(c1cc2c(c3ccccc13)NCCN=C2C(F)(F)F)C(F)(F)F	65.3 µM (inactive)	37.4 µM (inactive)	3.94 µM (inactive)	24.9 µM (inactive)	–	–	19.4 µM (inactive)	20.8 µM (inactive)	17.1 µM (inactive)	14.3 µM (inactive)	20.6 µM (inactive)	11.6 µM (inactive)	45.3	19.3 µM (inactive)	47.4 µM (inactive)	34.2 µM (inactive)	16.4 µM (inactive)	32.4 µM (inactive)	–	24.9 µM (inactive)
CSc1ncc2c(n1)sc1c(=O)n(-c3ccccc3)cnc12	> 100 µM (inactive)	> 100 µM (inactive)	> 100 µM (inactive)	> 100 µM (inactive)	> 100 µM (inactive)	> 100 µM (inactive)	> 100 µM (inactive)	> 100 µM (inactive)	> 100 µM (inactive)	> 100 µM (inactive)	> 100 µM (inactive)	> 100 µM (inactive)	> 100	> 100 µM (inactive)	–	> 100 µM (inactive)	> 100 µM (inactive)	> 100 µM (inactive)	> 100 µM (inactive)	> 100 µM (inactive)
O=C(O)c1cccc(NC(C(=O)c2ccccc2)c2ccccc2)c1 (stereo not drawn)	> 100 µM (inactive)	> 100 µM (inactive)	> 100 µM (inactive)	> 100 µM (inactive)	> 100 µM (inactive)	> 100 µM (inactive)	> 100 µM (inactive)	> 100 µM (inactive)	> 100 µM (inactive)	0.714 µM (active)	78.9 µM (inactive)	–	> 100	–	> 100 µM (inactive)	> 100 µM (inactive)	> 100 µM (inactive)	> 100 µM (inactive)	> 100 µM (inactive)	> 100 µM (inactive)
Cn1c2ccc([N+](=O)[O-])cc2c(=O)c2c(O)cc(O)cc21	> 100 µM (inactive)	–	19.2 µM (inactive)	60.4 µM (inactive)	18.6 µM (inactive)	18.1 µM (inactive)	61.1 µM (inactive)	19 µM (inactive)	> 100 µM (inactive)	27.5 µM (inactive)	7.74 µM (inactive)	–	60.3	> 100 µM (inactive)	5.94 µM (inactive)	> 100 µM (inactive)	60 µM (inactive)	43 µM (inactive)	29.4 µM (inactive)	66.2 µM (inactive)
CCOc1ccc(/N=N/C2C(=O)N(C(=O)CC(=O)Nc3ccc(Cl)cc3)N=C2C)cc1 (stereo not drawn)	> 100 µM (inactive)	> 100 µM (inactive)	> 100 µM (inactive)	> 100 µM (inactive)	> 100 µM (inactive)	–	> 100 µM (inactive)	> 100 µM (inactive)	> 100 µM (inactive)	> 100 µM (inactive)	> 100 µM (inactive)	> 100 µM (inactive)	–	–	> 100 µM (inactive)	> 100 µM (inactive)	> 100 µM (inactive)	> 100 µM (inactive)	> 100 µM (inactive)	> 100 µM (inactive)
COC1=CC(=O)N(C)C(O)C1(C#N)OC1OC(CO)C(O)C(O)C1O (stereo not drawn)	> 100 µM (inactive)	> 100 µM (inactive)	> 100 µM (inactive)	> 100 µM (inactive)	–	> 100 µM (inactive)	> 100 µM (inactive)	> 100 µM (inactive)	> 100 µM (inactive)	> 100 µM (inactive)	> 100 µM (inactive)	> 10 µM (inactive)	> 100	> 100 µM (inactive)	> 100 µM (inactive)	> 100 µM (inactive)	> 100 µM (inactive)	> 100 µM (inactive)	> 100 µM (inactive)	> 100 µM (inactive)
COC(=O)N1N=C(c2ccccc2)C1c1ccccc1 (stereo not drawn)	78.5 µM (inactive)	69.3 µM (inactive)	31.9 µM (inactive)	34.5 µM (inactive)	40.7 µM (inactive)	29.5 µM (inactive)	47.4 µM (inactive)	35.2 µM (inactive)	24 µM (inactive)	71 µM (inactive)	–	32.1 µM (inactive)	39.5	24.5 µM (inactive)	42.5 µM (inactive)	33.7 µM (inactive)	–	33.6 µM (inactive)	31 µM (inactive)	70.1 µM (inactive)
CC(=O)NC1C(OCc2ccccc2)OC(CO)C(O)C1OCC(=O)NC(C(=O)NC(CCC(=O)NCCCCCC(=O)Nc1ccc2c(c1)CN1C(=O)c3ccccc3C1=N2)C(N)=O)C(C)C (stereo not drawn)	> 100 µM (inactive)	18.8 µM (inactive)	88.1 µM (inactive)	40.6 µM (inactive)	23.8 µM (inactive)	20.9 µM (inactive)	19.1 µM (inactive)	16.4 µM (inactive)	24.9 µM (inactive)	23.7 µM (inactive)	–	42.8 µM (inactive)	52.2	25.9 µM (inactive)	31.6 µM (inactive)	31.6 µM (inactive)	21.4 µM (inactive)	28.8 µM (inactive)	41.4 µM (inactive)	18.3 µM (inactive)
O=C(COc1ccc(Cl)c(Cl)c1)N(Cc1ccccc1)Cc1ccc[n+](Cc2ccc(Cl)cc2S(=O)(=O)F)c1	> 100 µM (inactive)	> 100 µM (inactive)	23.2 µM (inactive)	38.5 µM (inactive)	20 µM (inactive)	37.8 µM (inactive)	23.4 µM (inactive)	> 100 µM (inactive)	> 100 µM (inactive)	40.8 µM (inactive)	94.6 µM (inactive)	> 100 µM (inactive)	31.5	35.4 µM (inactive)	–	29.9 µM (inactive)	22.6 µM (inactive)	> 100 µM (inactive)	> 100 µM (inactive)	53.3 µM (inactive)
CC(C)(C)OC(=O)C1C(=O)NC(=O)CC1CC(OCc1ccccc1)C(COCc1ccccc1)OCc1ccccc1 (stereo not drawn)	–	–	3.87 µM (inactive)	14 µM (inactive)	3.06 µM (inactive)	20.6 µM (inactive)	–	6.79 µM (inactive)	26.5 µM (inactive)	14 µM (inactive)	–	3.45 µM (inactive)	4.41	15.5 µM (inactive)	16.5 µM (inactive)	5.3 µM (inactive)	12.6 µM (inactive)	–	5.06 µM (inactive)	> 100 µM (inactive)
Cc1cn(CC2(CO)CCC2)c(=O)[nH]c1=O	> 100 µM (inactive)	> 100 µM (inactive)	> 100 µM (inactive)	–	> 100 µM (inactive)	–	> 100 µM (inactive)	> 100 µM (inactive)	> 100 µM (inactive)	> 100 µM (inactive)	> 100 µM (inactive)	> 100 µM (inactive)	> 100	> 100 µM (inactive)	> 100 µM (inactive)	> 100 µM (inactive)	> 100 µM (inactive)	> 100 µM (inactive)	> 100 µM (inactive)	> 100 µM (inactive)
CC(=O)OCCC1c2ccccc2-n2nc(-c3ccccc3)c(O)c21 (stereo not drawn)	19.3 µM (inactive)	–	11.4 µM (inactive)	15.3 µM (inactive)	> 10 µM (inactive)	14.6 µM (inactive)	16.6 µM (inactive)	18.6 µM (inactive)	16.4 µM (inactive)	19.5 µM (inactive)	16.6 µM (inactive)	21.2 µM (inactive)	16.8	16.8 µM (inactive)	15.9 µM (inactive)	16.9 µM (inactive)	17 µM (inactive)	18.7 µM (inactive)	17.7 µM (inactive)	22.1 µM (inactive)
CC(=O)OC1(C)CC(C)C(=O)C(C(O)CC2CC(=O)NC(=O)C2)C1 (stereo not drawn)	0.0206 µM (active)	–	0.00185 µM (active)	0.0161 µM (active)	0.0186 µM (active)	0.0141 µM (active)	0.00746 µM (active)	0.0204 µM (active)	0.0201 µM (active)	0.0223 µM (active)	0.00357 µM (active)	0.00798 µM (active)	0.0348	0.0262 µM (active)	0.0253 µM (active)	0.0148 µM (active)	0.00787 µM (active)	0.0875 µM (active)	0.00729 µM (active)	0.0859 µM (active)
C=C(C)[C@@H]1CC[C@]2(C(=O)OC)CC[C@]3(C)[C@H](CC[C@@H]4[C@@]5(C)CC[C@H](O)C(C)(C)[C@@H]5CC[C@]43C)[C@@H]12 [METHYL BETULINATE]	26.8 µM (inactive)	–	32.3 µM (inactive)	35.4 µM (inactive)	22.5 µM (inactive)	18.7 µM (inactive)	15.6 µM (inactive)	19.7 µM (inactive)	18.9 µM (inactive)	21.6 µM (inactive)	18.9 µM (inactive)	20.5 µM (inactive)	20.5	19.3 µM (inactive)	21.7 µM (inactive)	21 µM (inactive)	18.8 µM (inactive)	20.8 µM (inactive)	17.7 µM (inactive)	> 10 µM (inactive)
